Reference: patent US20240350643A1, “PROTEIN DEGRADATION AGENT” (SUZHOU KINTOR PHARMACEUTICALS, INC., priority 2021, published 2024)

Experiments:
HL60 cells = test: Anti-proliferation ability of compounds on HL60 cells (CTG); type: cell-based, human; details: Homo sapiens, HL-60, 72 h, 3 days, CellTiter-Glo, read-out: HL60 cells Proliferation inhibitory activity
Protocol: II. Activity test 2: Anti-proliferation ability of compounds on HL60 cells: 1 Cell plating
HL60 cells in the logarithmic growth phase were counted and plated evenly in a 96-well transparent bottom white plate at 20000 cells per well and 100 μL per well.
A certain amount of the compounds was weighed and diluted with DMSO to a 10 mM stock solution. The culture mediums corresponding to the cells were taken, and the drugs were diluted to the concentration required by the test, shaken gently and mixed evenly. 50 μl of the gradient dilution of the diluted compound was added to each well of the plated cells, and 50 μL of 0.1% DMSO was added to the control group. The plate was shaken gently, mixed evenly and incubated in a cell culture incubator for 3 days.
• 3.1 The CellTiter-GLo™ (CTG) reagent was taken in advance from the −20° C. refrigerator and equilibrated to room temperature in the dark (white bottle+brown bottle, 1:1 mixing evenly into the brown bottle, for later use). • 3.2 The 96-well plate was taken out and inspected under a microscope for growth situation. • 3.3 The bottom of the 96-well plate was tagged with white paper, and then the plate was wrapped with tin foil paper, shaken at 37° C. at 300 r for 10 min and mixed evenly. • 3.4 50 ul of CTG detection reagent was added to each well, Luminescence signal was detected using a microplate reader, and the inhibition rate was calculated. IC50 values of the compounds were calculated by XLfit software to evaluate the proliferation inhibitory activity on HL60 cells.

c-Myc protein = target: T1, c-Myc protein (Homo sapiens, UniProt P01106); test: Ability of compounds to degrade c-Myc protein in HL60 cells (ELISA); type: cell-based; details: HL-60, 1 μM compound, 24 h, read-out: HL60 cells Protein degradation rate (1 μM)
T1 construct: endogenous in cells; host or cells: HL60 cells
T1 sequence (P01106 whole entry): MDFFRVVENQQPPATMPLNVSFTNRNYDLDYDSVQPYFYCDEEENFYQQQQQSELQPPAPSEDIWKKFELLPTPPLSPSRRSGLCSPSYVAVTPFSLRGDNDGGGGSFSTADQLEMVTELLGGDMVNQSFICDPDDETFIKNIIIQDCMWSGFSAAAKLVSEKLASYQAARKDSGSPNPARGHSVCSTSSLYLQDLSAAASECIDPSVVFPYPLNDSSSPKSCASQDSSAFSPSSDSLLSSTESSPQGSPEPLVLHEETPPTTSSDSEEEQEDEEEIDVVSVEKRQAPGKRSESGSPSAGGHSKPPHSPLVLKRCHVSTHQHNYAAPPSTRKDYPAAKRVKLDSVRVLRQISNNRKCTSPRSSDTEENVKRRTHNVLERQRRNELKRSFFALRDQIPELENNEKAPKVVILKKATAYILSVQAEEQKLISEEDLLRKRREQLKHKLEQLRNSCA
Protocol: I Activity test 1: Ability of compounds to degrade c-Myc protein in HL60 cells:
HL60 cells in the exponential growth phase were centrifuged, diluted with fresh culture mediums to 6×10^4 cells/100 μL and plated into a 96-well plate at 100 μL per well.
Preparation of test compounds: the compounds were weighed and diluted with DMSO to a 10 mM stock solution for later use. According to test requirements, drugs were diluted with cell culture mediums, with ten-fold dilutions starting from 10 μM, to achieve 3 concentration gradients: 10 μM, 1 μM and 100 NM; and finally, 1 μL of the drugs (DMSO content: 0.01%) were added to each well. For the blank control group, DMSO was also diluted with cell culture mediums, and finally, 1 μL of the control reagent (DMSO content: 0.01%) was added to each well.
3. Effect of drugs on c-Myc in cells as determined by ELISA
After 24 h of drug action, the culture mediums were removed, and the cells were washed once with ice-cold 1× PBS. PBS was removed, and 100 μL of ice-cold 1× Cell Lysis Buffer plus 1 mM phenylmethylsulfonyl fluoride (PMSF) was added to each well. The plate was incubated on ice for 20 min and centrifuged at 4000 RPM at 4° C. for 10 min for later use.
4. Reagent and antibody preparation in ELISA kit 1× wash buffer • 1). 16 mL of ELISA wash buffer concentrate (25×) was diluted with 384 mL of deionized water or distilled water, labeled as 1× Wash Buffer. • 2). The concentrate and 1× Wash Buffer were stored in the refrigerator. The diluted buffer was used within 14 days.
The cell extraction buffer contains 10 mM Tris (pH 7.4), 100 mM NaCl, 1 mM EDTA, 1 mM EGTA, 1 mM NaF, 20 mM Na4P2O7 2 mM Na3VO4. 1% Triton™ ×-100, 10% glycerol, 0.1% SDS and 0.5% deoxycholate. Immediately before use, PMSF (0.3 M stock solution in DMSO) was added to the buffer to a final concentration of 1 mM.
Standard curve configuration: The standard liquid was diluted using glass or plastic tubes. • 1). Huc-Myc (total) standard liquid (Invitrogen, KH02041) was reconstituted with a standard dilution to 1000 pg/mL. Refer to the standard vial label for instructions. The contents were gently swirled or mixed and then allowed to stand for 10 minutes to ensure complete reconstitution, labeled as 1,000 pg/mL human c-Myc. The standard liquid was used within 1 hour after reconstitution. • 2). 250 μL of standard dilution buffers were added to 7 test tubes respectively labeled 500, 250, 125, 62.5, 31.25, 15,63 and 0 pg/mL. • 3). 250 μL of the 1000 pg/ml standard stock solution was added to the first EP tube to a concentration of 500 pg/mL, vortexed and mixed evenly. 250 μL of the resulting mixture was further pipetted and added to the second EP tube to a concentration of 250 pg/mL. Serial dilutions were performed until the sixth EP tube with a concentration of 15.63 pg/mL. Dilution was not performed on the last EP tube. • 4). The remaining reconstituted standard liquid should be discarded, or aliquoted and frozen at −80° C. for further use. Standards can be frozen and thawed only once without losing immunoreactivity.
1× anti-rabbit IgG HRP solution: 1× anti-rabbit IgG HRP solution was prepared within 15 minutes of use. The anti-rabbit IgG HRP (100×) contained 50% viscous glycerol. To ensure accurate dilutions, the following operations were carried out: 1 For each 8-well test strip used in the test, 10 μl, of the anti-rabbit IgG -IRP (100×) solution was pipetted, wherein the pipette tip was wiped with clean absorbent paper to remove excess solutions, and then the solution was dispensed into a test tube containing 1 mL of HRP diluent and mixed thoroughly. 2. The unused anti-rabbit IgG HRP (100×) was placed in the refrigerator for storage.
50 μL of the standard liquid was added to the appropriate wells and not added to the blank control well. Except for the blank control well, 50 μL of Hu c-Myc (total) detection antibody solution was added to each well and mixed by tapping the side face of the plate. […]

Row | Structure (SMILES) | IC50 (HL60 cells) [µM] | inhibition at 1 µM (c-Myc protein) [%]
1 | O=C1CCC(N2C(=O)c3ccc(C(=O)NCCCCCCNC(=O)n4c5ccccc5c5ccccc54)cc3C2=O)C(=O)N1 (stereo not drawn) [A12] | 1.06 ± 0.062 | 30 to 60
2 | O=C(CCn1c2ccccc2c2ccccc21)NCCCCCCNC(=O)c1ccc2c(c1)C(=O)N(C1CCC(=O)NC1=O)C2=O (stereo not drawn) [A13] | 1.27 ± 0.051 | 10 to 30
3 | O=C(Cn1c2ccccc2c2ccccc21)NCCCCCCCCNC(=O)c1ccc2c(c1)C(=O)N(C1CCC(=O)NC1=O)C2=O (stereo not drawn) [A14] | 0.226 ± 0.072 | 30 to 60
4 | O=C(Cc1cccc2ccccc12)NCCCCCCCCNc1ccc2c(c1)C(=O)N(C1CCC(=O)NC1=O)C2=O (stereo not drawn) [A15] | 0.0163 ± 0.0033 | 60 to 90
5 | O=C(Cn1c2ccccc2c2cccnc21)NCCCCCCCCNc1ccc2c(c1)C(=O)N(C1CCC(=O)NC1=O)C2=O (stereo not drawn) [A16] | 0.0212 ± 0.0061 | 60 to 90
6 | O=C(Cc1cccc2ccccc12)NCCCCCCCCOc1ccc2c(c1)C(=O)N(C1CCC(=O)NC1=O)C2=O (stereo not drawn) [A17] | 3.59 ± 1.18 | 30 to 60
7 | O=C(Cn1c2ccccc2c2cccnc21)NCCCCCCCCOc1ccc2c(c1)C(=O)N(C1CCC(=O)NC1=O)C2=O (stereo not drawn) [A18] | 1.22 ± 0.217 | 30 to 60
8 | O=C(Cc1cccc2ccccc12)NCCCCCCCCCc1ccc2c(c1)C(=O)N(C1CCC(=O)NC1=O)C2=O (stereo not drawn) [A19] | 0.585 ± 0.0798 | 60 to 90
9 | O=C(Cn1c2ccccc2c2cccnc21)NCCCCCCCCCc1ccc2c(c1)C(=O)N(C1CCC(=O)NC1=O)C2=O (stereo not drawn) [A20] | 0.49 ± 0.0649 | 60 to 90
10 | O=C1CCC(N2C(=O)c3ccc(CCCCCCC(=O)N(Cc4ccccc4)Cc4ccccc4)cc3C2=O)C(=O)N1 (stereo not drawn) [A21] | 0.178 ± 0.0684 | 10 to 30
11 | O=C(Cc1cccc2ccccc12)NC[C@H]1CC[C@H](CNC(=O)c2ccc3c(c2)C(=O)N(C2CCC(=O)NC2=O)C3=O)CC1 (stereo partly drawn) [A22] | 0.0292 ± 0.0144 | 30 to 60
12 | O=C(Cn1c2ccccc2c2ccccc21)NC[C@H]1CC[C@H](CNC(=O)c2ccc3c(c2)C(=O)N(C2CCC(=O)NC2=O)C3=O)CC1 (stereo partly drawn) [A23] | 0.0554 ± 0.0067 | 30 to 60
13 | O=C(Cn1c2ccccc2c2cccnc21)NC[C@H]1CC[C@H](CNC(=O)c2ccc3c(c2)C(=O)N(C2CCC(=O)NC2=O)C3=O)CC1 (stereo partly drawn) [A24] | 0.103 ± 0.0532 | 30 to 60
14 | O=C(Cn1c2ccccc2c2ccncc21)NC[C@H]1CC[C@H](CNC(=O)c2ccc3c(c2)C(=O)N(C2CCC(=O)NC2=O)C3=O)CC1 (stereo partly drawn) [A25] | 0.27 ± 0.126 | 30 to 60
15 | CC(C)(C)OC(=O)NC[C@H]1CC[C@H](CNC(=O)c2ccc3c(c2)C(=O)N(C2CCC(=O)NC2=O)C3=O)CC1 (stereo partly drawn) [A26] | 2.82 ± 1.06 | 30 to 60

Results, then the molecule that gave them:

Row | IC50 (HL60 cells) [µM] | inhibition at 1 µM (c-Myc protein) [%] | Structure (SMILES)
16 | 6.8 ± 1.54 | 10 to 30 | O=C(Cc1cccc2ccccc12)NC[C@H]1CC[C@H](CNc2ccc3c(c2)C(=O)N(C2CCC(=O)NC2=O)C3=O)CC1 (stereo partly drawn) [A27]
17 | 5.05 ± 0.137 | 60 to 90 | CC(C)(C)OC(=O)NC[C@H]1CC[C@H](CNc2ccc3c(c2)C(=O)N(C2CCC(=O)NC2=O)C3=O)CC1 (stereo partly drawn) [A28]
18 | 0.0301 ± 0.0211 | 60 to 90 | O=C(Cc1cccc2ccccc12)NCc1ccc(CNC(=O)c2ccc3c(c2)C(=O)N(C2CCC(=O)NC2=O)C3=O)cc1 (stereo not drawn) [A29]
19 | 0.018 ± 0.0115 | 60 to 90 | O=C(Cn1c2ccccc2c2cccnc21)NCc1ccc(CNC(=O)c2ccc3c(c2)C(=O)N(C2CCC(=O)NC2=O)C3=O)cc1 (stereo not drawn) [A30]
20 | 1.36 | 60 to 90 | CC(C)(C(=O)NCc1ccc(CNC(=O)c2ccc3c(c2)C(=O)N(C2CCC(=O)NC2=O)C3=O)cc1)c1cccc2ccccc12 (stereo not drawn) [A31]
21 | 0.433 ± 0.166 | 60 to 90 | CC(C)(C(=O)NCc1ccc(CNC(=O)c2ccc3c(c2)C(=O)N(C2CCC(=O)NC2=O)C3=O)cc1)n1c2ccccc2c2cccnc21 (stereo not drawn) [A32]
22 | 0.0091 ± 0.0003 | 60 to 90 | O=C(Cc1nccc2ccccc12)NCc1ccc(CNC(=O)c2ccc3c(c2)C(=O)N(C2CCC(=O)NC2=O)C3=O)cc1 (stereo not drawn) [A33]
23 | 0.018 ± 0.006 | 60 to 90 | O=C(Cc1cccc2cccnc12)NCc1ccc(CNC(=O)c2ccc3c(c2)C(=O)N(C2CCC(=O)NC2=O)C3=O)cc1 (stereo not drawn) [A34]
24 | 0.0109 ± 0.0048 | 60 to 90 | O=C(Cc1c(F)ccc2ccccc12)NCc1ccc(CNC(=O)c2ccc3c(c2)C(=O)N(C2CCC(=O)NC2=O)C3=O)cc1 (stereo not drawn) [A35]
25 | 0.0134 ± 0.0033 | 30 to 60 | O=C(Cc1cccc2ccc(F)cc12)NCc1ccc(CNC(=O)c2ccc3c(c2)C(=O)N(C2CCC(=O)NC2=O)C3=O)cc1 (stereo not drawn) [A36]
26 | 0.314 | 30 to 60 | O=C(Cc1cccc2ccccc12)NCc1cccc(CNC(=O)c2ccc3c(c2)C(=O)N(C2CCC(=O)NC2=O)C3=O)c1 (stereo not drawn) [A37]
27 | 0.0662 ± 0.0146 | 30 to 60 | O=C(Cn1c2ccccc2c2cccnc21)NCc1cccc(CNC(=O)c2ccc3c(c2)C(=O)N(C2CCC(=O)NC2=O)C3=O)c1 (stereo not drawn) [A38]
28 | 0.979 ± 0.0802 | 60 to 90 | O=C(Cc1cccc2ccccc12)NCCc1ccc(NC(=O)c2ccc3c(c2)C(=O)N(C2CCC(=O)NC2=O)C3=O)cc1 (stereo not drawn) [A39]
29 | 0.306 ± 0.0738 | 60 to 90 | O=C(Cc1cccc2ccccc12)NCCc1ccc(CNC(=O)c2ccc3c(c2)C(=O)N(C2CCC(=O)NC2=O)C3=O)cc1 (stereo not drawn) [A40]
30 | 0.155 ± 0.0089 | 60 to 90 | O=C(Cn1c2ccccc2c2cccnc21)NCCc1ccc(CNC(=O)c2ccc3c(c2)C(=O)N(C2CCC(=O)NC2=O)C3=O)cc1 (stereo not drawn) [A41]
